The source of these data is article PMC4893804 (Journal of medicinal chemistry, 2015).

Like-named read-outs stand apart in the source and are kept apart here. Bounds are passed on as bounds.

As a reminder, the IC50 is the concentration that gives 50% inhibition.

Common to all, as to assay type: biochemical
One experiment deals with T1, Human DNA Pol α (Homo sapiens, UniProt P09884).
T1 sequence (P09884 1-1462): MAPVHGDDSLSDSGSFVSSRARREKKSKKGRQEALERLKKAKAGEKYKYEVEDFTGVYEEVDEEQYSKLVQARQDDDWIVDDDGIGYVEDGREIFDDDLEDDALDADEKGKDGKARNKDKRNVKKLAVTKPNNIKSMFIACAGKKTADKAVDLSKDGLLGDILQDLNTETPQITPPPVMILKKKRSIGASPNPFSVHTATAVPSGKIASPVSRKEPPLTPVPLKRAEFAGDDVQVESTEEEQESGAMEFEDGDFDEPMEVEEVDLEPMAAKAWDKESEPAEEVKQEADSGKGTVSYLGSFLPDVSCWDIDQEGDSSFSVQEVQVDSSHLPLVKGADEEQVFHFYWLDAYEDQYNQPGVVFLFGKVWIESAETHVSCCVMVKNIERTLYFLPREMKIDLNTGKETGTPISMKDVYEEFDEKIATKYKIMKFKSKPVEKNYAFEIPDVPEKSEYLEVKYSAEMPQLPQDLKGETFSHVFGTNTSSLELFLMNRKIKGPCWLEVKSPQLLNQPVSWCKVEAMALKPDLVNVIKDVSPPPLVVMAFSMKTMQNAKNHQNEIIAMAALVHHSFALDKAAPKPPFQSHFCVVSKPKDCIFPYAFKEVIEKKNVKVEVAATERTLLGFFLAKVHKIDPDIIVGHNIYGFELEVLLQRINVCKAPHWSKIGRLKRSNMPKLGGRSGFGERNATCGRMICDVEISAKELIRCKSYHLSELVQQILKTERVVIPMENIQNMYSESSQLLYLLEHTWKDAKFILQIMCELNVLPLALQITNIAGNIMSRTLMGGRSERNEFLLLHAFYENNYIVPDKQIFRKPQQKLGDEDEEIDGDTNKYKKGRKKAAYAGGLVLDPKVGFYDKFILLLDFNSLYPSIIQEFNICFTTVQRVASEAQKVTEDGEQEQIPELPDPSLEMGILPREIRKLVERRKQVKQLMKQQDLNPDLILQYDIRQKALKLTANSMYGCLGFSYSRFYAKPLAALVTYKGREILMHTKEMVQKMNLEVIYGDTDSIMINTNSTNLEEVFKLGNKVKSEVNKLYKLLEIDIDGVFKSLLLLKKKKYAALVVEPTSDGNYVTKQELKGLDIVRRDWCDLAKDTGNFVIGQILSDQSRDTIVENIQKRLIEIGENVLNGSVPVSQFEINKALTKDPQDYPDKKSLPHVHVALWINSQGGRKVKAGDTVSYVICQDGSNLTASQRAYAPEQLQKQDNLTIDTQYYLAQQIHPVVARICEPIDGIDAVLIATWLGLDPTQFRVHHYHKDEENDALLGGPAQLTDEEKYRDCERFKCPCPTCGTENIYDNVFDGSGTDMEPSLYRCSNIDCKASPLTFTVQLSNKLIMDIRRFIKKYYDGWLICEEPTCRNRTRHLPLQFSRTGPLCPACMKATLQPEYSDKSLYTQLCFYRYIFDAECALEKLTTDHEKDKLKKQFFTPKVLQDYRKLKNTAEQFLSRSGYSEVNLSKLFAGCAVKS
Kind of experiment: Enzyme assay with human DNA polymerase α.

In another experiment the target is Human DNA Pol β (Homo sapiens, UniProt P06746). Kind of experiment: Enzyme assay with human DNA polymerase β.
Experiment [1] has as its target HCMV DNA polymerase (UL54) (Human cytomegalovirus, UniProt P08546). Kind of experiment: Enzyme assay with HCMV DNA polymerase. As to conditions: for IC50: activated calf thymus DNA, [3H]dTTP; for superior activity against HCMV DNA polymerase compared to thymine-α-CNP: ratio vs thymine-α-CNP.
The target of another experiment is VZV DNA polymerase (Varicella-zoster virus, UniProt P09252). Kind of experiment: Enzyme assay with VZV DNA polymerase.
Chain of VZV DNA polymerase (P09252 whole entry): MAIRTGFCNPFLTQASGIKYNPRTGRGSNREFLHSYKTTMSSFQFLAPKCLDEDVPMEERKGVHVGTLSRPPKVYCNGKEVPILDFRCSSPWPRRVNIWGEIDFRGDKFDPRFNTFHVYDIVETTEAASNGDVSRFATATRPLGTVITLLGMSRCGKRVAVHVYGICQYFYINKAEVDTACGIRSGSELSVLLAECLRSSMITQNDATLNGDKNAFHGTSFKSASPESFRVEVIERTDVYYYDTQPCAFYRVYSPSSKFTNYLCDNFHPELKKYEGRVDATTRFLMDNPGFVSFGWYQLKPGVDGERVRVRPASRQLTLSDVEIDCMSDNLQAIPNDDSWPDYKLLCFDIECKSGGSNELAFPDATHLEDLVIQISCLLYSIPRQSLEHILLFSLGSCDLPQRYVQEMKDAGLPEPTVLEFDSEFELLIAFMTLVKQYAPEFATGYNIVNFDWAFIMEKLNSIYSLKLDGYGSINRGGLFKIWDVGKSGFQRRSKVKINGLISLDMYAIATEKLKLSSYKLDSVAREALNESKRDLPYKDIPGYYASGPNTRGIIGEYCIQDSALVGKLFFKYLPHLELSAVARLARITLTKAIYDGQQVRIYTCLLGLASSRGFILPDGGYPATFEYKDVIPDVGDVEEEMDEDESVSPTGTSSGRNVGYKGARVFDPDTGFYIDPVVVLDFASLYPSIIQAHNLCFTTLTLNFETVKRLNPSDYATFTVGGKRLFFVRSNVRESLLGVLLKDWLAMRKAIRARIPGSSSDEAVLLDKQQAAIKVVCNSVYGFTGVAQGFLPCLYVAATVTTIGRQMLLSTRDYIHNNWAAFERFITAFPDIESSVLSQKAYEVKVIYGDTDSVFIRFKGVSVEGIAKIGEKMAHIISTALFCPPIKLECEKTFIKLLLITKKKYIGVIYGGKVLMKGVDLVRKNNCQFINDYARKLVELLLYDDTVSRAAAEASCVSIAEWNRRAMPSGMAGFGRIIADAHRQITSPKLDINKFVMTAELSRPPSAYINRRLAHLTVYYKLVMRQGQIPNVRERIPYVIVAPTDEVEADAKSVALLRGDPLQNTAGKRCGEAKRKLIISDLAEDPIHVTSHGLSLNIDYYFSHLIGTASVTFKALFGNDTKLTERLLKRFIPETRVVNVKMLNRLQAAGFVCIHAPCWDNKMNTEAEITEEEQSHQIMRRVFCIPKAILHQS
In the next experiment the target is HSV-1 DNA polymerase (Human herpesvirus 1, UniProt P04293). Kind of experiment: Enzyme assay with HSV-1 DNA polymerase.
Chain of HSV-1 DNA polymerase (P04293 whole entry): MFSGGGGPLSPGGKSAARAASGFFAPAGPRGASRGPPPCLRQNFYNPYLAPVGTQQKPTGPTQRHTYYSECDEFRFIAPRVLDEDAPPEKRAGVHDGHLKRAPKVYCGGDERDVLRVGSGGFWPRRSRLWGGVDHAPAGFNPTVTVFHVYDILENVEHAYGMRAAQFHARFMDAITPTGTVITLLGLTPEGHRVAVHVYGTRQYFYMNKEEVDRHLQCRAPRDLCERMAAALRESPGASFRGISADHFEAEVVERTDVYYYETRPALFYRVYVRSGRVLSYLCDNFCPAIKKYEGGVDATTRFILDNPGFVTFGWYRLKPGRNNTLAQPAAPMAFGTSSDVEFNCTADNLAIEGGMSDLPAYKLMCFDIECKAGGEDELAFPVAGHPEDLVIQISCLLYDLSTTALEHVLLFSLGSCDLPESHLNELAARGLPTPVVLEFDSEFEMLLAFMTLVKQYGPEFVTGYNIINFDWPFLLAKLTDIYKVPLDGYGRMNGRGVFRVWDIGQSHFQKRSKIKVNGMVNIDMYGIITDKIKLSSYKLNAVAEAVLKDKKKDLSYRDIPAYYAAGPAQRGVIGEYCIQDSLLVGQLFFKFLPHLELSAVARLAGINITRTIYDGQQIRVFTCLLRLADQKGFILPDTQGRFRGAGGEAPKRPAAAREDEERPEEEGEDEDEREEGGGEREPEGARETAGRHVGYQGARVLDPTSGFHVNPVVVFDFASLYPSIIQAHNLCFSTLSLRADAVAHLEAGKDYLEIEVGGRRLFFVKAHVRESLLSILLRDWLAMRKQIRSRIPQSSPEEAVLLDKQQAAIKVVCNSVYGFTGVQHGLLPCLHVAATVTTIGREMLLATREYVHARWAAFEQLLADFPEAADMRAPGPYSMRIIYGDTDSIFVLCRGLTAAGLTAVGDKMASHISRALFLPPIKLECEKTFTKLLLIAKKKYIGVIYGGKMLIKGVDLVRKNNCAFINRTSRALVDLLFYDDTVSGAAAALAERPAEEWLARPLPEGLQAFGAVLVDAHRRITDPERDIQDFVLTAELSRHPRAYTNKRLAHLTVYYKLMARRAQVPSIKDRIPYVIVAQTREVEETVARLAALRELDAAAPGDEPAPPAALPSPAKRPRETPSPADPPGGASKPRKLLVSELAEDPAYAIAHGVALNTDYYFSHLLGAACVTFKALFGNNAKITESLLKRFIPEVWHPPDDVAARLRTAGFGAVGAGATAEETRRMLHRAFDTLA
Another experiment addresses HIV-1 RT (Human immunodeficiency virus type 1 group M subtype B, UniProt P03366). The experiment can be described thus: HIV-1 reverse transcriptase assay with homopolymeric template/primers.
Where [2] appears, read: IC50 HIV-1 RT, poly rA.dT template/primer, [3H]dTTP.
The mark [3] stands for this setting: read-out: IC50 Human DNA Pol α, activated calf thymus DNA, [3H]dTTP.
[4] abbreviates: read-out: IC50 Human DNA Pol β, activated calf thymus DNA, [3H]dTTP.
The mark [5] stands for this setting: read-out: IC50 VZV DNA Pol, poly dA.oligo dT, [3H]dTTP.
The mark [6] stands for this setting: read-out: IC50 HSV-1 DNA Pol, activated calf thymus DNA, [3H]dTTP.
[7] abbreviates: read-out: IC50 HIV-1 RT, poly rA.dT template/primer, [3H]dTTP.
[8] abbreviates: read-out: IC50 HIV-1 RT Poly rA.dT ([3H]dTTP), Table 7, Poly rA.dT, [3H]dTTP.
Where [9] appears, read: read-out: IC50 HIV-1 RT Poly rC.dG ([3H]dGTP), Poly rC.dG, [3H]dGTP.
Where [10] appears, read: read-out: IC50 HIV-1 RT Poly rI.dC ([3H]dCTP), Poly rI.dC, [3H]dCTP.
[11] abbreviates: read-out: IC50 HIV-1 RT Poly rU.dA ([3H]dATP), Poly rU.dA, [3H]dATP.

Chain of HCMV DNA polymerase (UL54) (P08546 whole entry): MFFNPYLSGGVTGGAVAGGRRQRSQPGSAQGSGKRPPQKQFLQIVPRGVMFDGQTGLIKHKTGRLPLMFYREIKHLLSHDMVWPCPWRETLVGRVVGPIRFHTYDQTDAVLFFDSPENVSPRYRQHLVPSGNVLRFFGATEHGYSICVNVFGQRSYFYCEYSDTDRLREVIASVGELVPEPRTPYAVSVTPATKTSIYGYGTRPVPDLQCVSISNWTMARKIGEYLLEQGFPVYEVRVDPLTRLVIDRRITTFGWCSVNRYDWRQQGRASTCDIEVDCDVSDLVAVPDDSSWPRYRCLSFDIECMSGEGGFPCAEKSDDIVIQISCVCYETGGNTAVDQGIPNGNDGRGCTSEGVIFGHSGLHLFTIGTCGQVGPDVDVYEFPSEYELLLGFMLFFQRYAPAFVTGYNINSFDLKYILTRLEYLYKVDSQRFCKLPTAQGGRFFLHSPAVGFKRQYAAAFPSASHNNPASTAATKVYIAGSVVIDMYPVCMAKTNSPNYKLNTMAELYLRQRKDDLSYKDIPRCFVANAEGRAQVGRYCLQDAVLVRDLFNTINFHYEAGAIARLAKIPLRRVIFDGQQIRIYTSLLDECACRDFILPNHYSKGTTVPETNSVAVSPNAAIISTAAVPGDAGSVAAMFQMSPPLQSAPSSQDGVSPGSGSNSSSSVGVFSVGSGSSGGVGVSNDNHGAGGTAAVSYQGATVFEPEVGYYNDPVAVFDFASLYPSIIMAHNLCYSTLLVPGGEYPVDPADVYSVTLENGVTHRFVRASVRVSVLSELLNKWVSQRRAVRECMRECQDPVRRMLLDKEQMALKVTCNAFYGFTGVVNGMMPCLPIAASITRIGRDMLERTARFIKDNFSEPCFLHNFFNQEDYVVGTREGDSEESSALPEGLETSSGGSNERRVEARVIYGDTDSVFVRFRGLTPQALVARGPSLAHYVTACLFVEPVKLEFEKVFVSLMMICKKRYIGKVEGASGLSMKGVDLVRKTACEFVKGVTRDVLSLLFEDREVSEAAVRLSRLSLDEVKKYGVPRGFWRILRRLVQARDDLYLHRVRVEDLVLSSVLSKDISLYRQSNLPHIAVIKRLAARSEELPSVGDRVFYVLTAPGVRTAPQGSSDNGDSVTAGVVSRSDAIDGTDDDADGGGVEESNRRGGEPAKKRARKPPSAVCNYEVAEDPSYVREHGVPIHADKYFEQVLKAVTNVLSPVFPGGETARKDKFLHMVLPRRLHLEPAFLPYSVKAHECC

Turning to `Cc1cn(Cc2cn(CCOC(C(=O)O)P(=O)(O)O)nn2)c(=O)[nH]c1=O` (centres unmarked) [Compound 6f, 2-(2-(4-((5-methyl-2,4-dioxo-3,4-dihydropyrimidin-1(2H)-yl)methyl)-1H-1,2,3-triazol-1-yl)ethoxy)-2-phosphonoacetic acid], the IC50 on Human DNA Pol α was 332 ± 28 µM; against Human DNA Pol β, 361 ± 160 µM; in experiment [1] (IC50 HCMV DNA Pol), 38 ± 6 µM; against VZV DNA polymerase, 24 ± 4 µM; at HSV-1 DNA polymerase, 25 ± 21 µM; against HIV-1 RT (setting [2]) it was more than 500 µM.
Turning to `O=c1[nH]c(=O)n([C@H]2C[C@H](O)[C@@H](COP(=O)(O)OP(=O)(O)OP(=O)(O)O)O2)cc1/C=C/Br` [BVDU-TP, (E)-5-(2-Bromovinyl)-2′-deoxyuridine-5′-triphosphate, reference compound], the IC50 worked out at 21 ± 10 µM against Human DNA Pol α; 26 ± 4 µM on Human DNA Pol β; 3.6 ± 0.7 µM in experiment [1] (IC50 HCMV DNA Pol); 0.49 ± 0.09 µM against VZV DNA polymerase; 1.9 ± 0.9 µM on HSV-1 DNA polymerase; 0.89 ± 0.4 µM against HIV-1 RT (setting [2]).
With `Cc1cn(C[C@H]2C[C@H]2COC(C(=O)O)P(=O)(O)O)c(=O)[nH]c1=O` (relative stereo) [Compound 6b], the IC50 is 183 ± 8 µM on Human DNA Pol α (setting [3]); 390 ± 127 µM on Human DNA Pol β (setting [4]); 4.6 ± 0.2 µM in experiment [1] (read-out: IC50 HCMV DNA Pol); 12 ± 3 µM on VZV DNA polymerase (setting [5]); 36 ± 12 µM at HSV-1 DNA polymerase (setting [6]); 440 ± 85 µM at HIV-1 RT (setting [7]). The “superior activity against HCMV DNA polymerase compared to thymine-α-CNP” value (“superior activity … compared to thymine-α-CNP” for short) in experiment [1] was 8- to 13 fold.
On to `Cc1cn([C@H]2CC[C@@H](COP(=O)(O)OP(=O)(O)OP(=O)(O)O)O2)c(=O)[nH]c1=O` [ddTTP, reference compound], for which the IC50 at HIV-1 RT (setting [8]) was 0.05 ± 0.01 µM; at HIV-1 RT (setting [9]), more than 20 µM; at HIV-1 RT (setting [10]), more than 20 µM; on HIV-1 RT (setting [11]), more than 20 µM.
Consider `Cc1cn(CCCCOC(C(=O)O)P(=O)(O)O)c(=O)[nH]c1=O` (centres unmarked) [Compound 6h, 2-(4-(2,4-Dioxo-5-methyl-pyrimidin-1-yl)butyloxy)-2-phosphonoacetic acid], for which the IC50 against Human DNA Pol α was determined as 301 ± 51 µM; on Human DNA Pol β it was 450 ± 105 µM; against VZV DNA polymerase, 27 ± 12 µM; against HSV-1 DNA polymerase, 45 ± 27 µM; against HIV-1 RT (setting [2]) it was 145 ± 106 µM.
In the case of `Cc1cn(C[C@H]2CC=CC[C@H]2COC(C(=O)O)P(=O)(O)O)c(=O)[nH]c1=O` (relative stereo) [Compound 6c], the half-inhibitory concentration (IC50) is 48 ± 36 µM on Human DNA Pol α (setting [3]); more than 500 µM on Human DNA Pol β (setting [4]); 3 ± 0.5 µM in experiment [1] (read-out: IC50 HCMV DNA Pol); 8.5 ± 2.1 µM on VZV DNA polymerase (setting [5]); 14 ± 3 µM at HSV-1 DNA polymerase (setting [6]); 425 ± 106 µM at HIV-1 RT (setting [7]). The “superior activity … compared to thymine-α-CNP” value in experiment [1] is given as 8- to 13 fold.
`Cc1cn(Cc2ccccc2COC(C(=O)O)P(=O)(O)O)c(=O)[nH]c1=O` (centres unmarked) [Compound 6d, 2-(2-((2,4-Dioxo-5-methyl-pyrimidin-1-yl)methyl)benzyloxy)-2-phosphonoacetic acid]: the IC50 is 75 ± 18 µM at Human DNA Pol α; 76 ± 30 µM against Human DNA Pol β; 2.9 ± 0.7 µM on VZV DNA polymerase; 7.5 ± 5 µM on HSV-1 DNA polymerase; 131 ± 86 µM against HIV-1 RT (setting [2]). Further, the “superior activity … compared to thymine-α-CNP” value in experiment [1] is recorded as ~ 3 fold. The “more active against VZV DNA polymerase than thymine-α-CNP” value on VZV DNA polymerase (ratio vs thymine-α-CNP) is reported as 13 fold. For the same compound, the “more active against HSV-1 DNA polymerase than thymine-α-CNP” value on HSV-1 DNA polymerase (ratio vs thymine-α-CNP) is on record as ~ 3 fold.
`Cc1cn(C[C@H]2CCCC[C@H]2COC(C(=O)O)P(=O)(O)O)c(=O)[nH]c1=O` (relative stereo) [Compound 6e]: the IC50 is 69 ± 21 µM at Human DNA Pol α (setting [3]); more than 500 µM at Human DNA Pol β (setting [4]); 4 µM in experiment [1] (read-out: IC50 HCMV DNA Pol); 16 ± 1 µM at VZV DNA polymerase (setting [5]); 8.6 ± 6.6 µM at HSV-1 DNA polymerase (setting [6]); not below 500 µM at HIV-1 RT (setting [7]). For the same compound, in experiment [1], the “superior activity … compared to thymine-α-CNP” value is 8- to 13 fold.
Consider `Cc1cn(C[C@H]2CCC[C@H]2COC(C(=O)O)P(=O)(O)O)c(=O)[nH]c1=O` (relative stereo) [Compound 6a], for which the IC50 at Human DNA Pol α (setting [3]) is 165 ± 100 µM; at Human DNA Pol β (setting [4]), more than 500 µM; in experiment [1] (read-out: IC50 HCMV DNA Pol), 40 ± 25 µM; at VZV DNA polymerase (setting [5]), 73 ± 1 µM; on HSV-1 DNA polymerase (setting [6]), 14 ± 14 µM; on HIV-1 RT (setting [7]), not below 500 µM.
As for `O=C(O)C(OCCCCn1cc(F)c(=O)[nH]c1=O)P(=O)(O)O` (centres unmarked) [Compound 6j, 2-(4-(5-Fluoro-2,4-dioxo-3,4-dihydropyrimidin-1(2H)-yl)butoxy)-2-phosphonoacetic acid], the IC50 at Human DNA Pol α (setting [3]) was 72 ± 52 µM; at Human DNA Pol β (setting [4]), 306 ± 3 µM; in experiment [1] (read-out: IC50 HCMV DNA Pol) it was 9.4 ± 4.1 µM; on VZV DNA polymerase (setting [5]), 4.1 ± 0.9 µM; at HSV-1 DNA polymerase (setting [6]), 6.7 ± 4.6 µM; at HIV-1 RT (setting [7]), 263 ± 69 µM.
`Nc1ccn([C@H]2CC[C@@H](COP(=O)(O)OP(=O)(O)OP(=O)(O)O)O2)c(=O)n1` [ddCTP, reference compound]: the IC50 at HIV-1 RT (IC50 HIV-1 RT Poly rA.dT ([3H]dTTP)) is more than 20 µM; against HIV-1 RT (IC50 HIV-1 RT Poly rC.dG ([3H]dGTP)), more than 20 µM; at HIV-1 RT (IC50 HIV-1 RT Poly rI.dC ([3H]dCTP)), 3.1 ± 2.2 µM; against HIV-1 RT (IC50 HIV-1 RT Poly rU.dA ([3H]dATP)), more than 20 µM.
For the compound `Nc1ncnc2c1ncn2[C@H]1CC[C@@H](COP(=O)(O)OP(=O)(O)OP(=O)(O)O)O1` [ddATP, reference compound], the IC50 was more than 20 µM on HIV-1 RT (IC50 HIV-1 RT Poly rA.dT ([3H]dTTP), Table 7, Poly rA.dT, [3H]dTTP); more than 20 µM against HIV-1 RT (IC50 HIV-1 RT Poly rC.dG ([3H]dGTP), Poly rC.dG, [3H]dGTP); more than 20 µM on HIV-1 RT (IC50 HIV-1 RT Poly rI.dC ([3H]dCTP), Poly rI.dC, [3H]dCTP); 0.46 ± 0.12 µM at HIV-1 RT (IC50 HIV-1 RT Poly rU.dA ([3H]dATP), Poly rU.dA, [3H]dATP).
For the compound `Nc1nc2c(ncn2[C@H]2CC[C@@H](COP(=O)(O)OP(=O)(O)OP(=O)(O)O)O2)c(=O)[nH]1` [ddGTP, reference compound], the IC50 at HIV-1 RT (setting [8]) was more than 20 µM; on HIV-1 RT (setting [9]), 0.26 ± 0.17 µM; at HIV-1 RT (setting [10]), more than 20 µM; at HIV-1 RT (setting [11]), more than 20 µM.
As for `O=C(O)C(OC/C=C\Cn1cc(F)c(=O)[nH]c1=O)P(=O)(O)O` (stereo not drawn) [Compound 6i, 2-Cis-(4-(5-fluoro-2,4-dioxo-3,4-dihydropyrimidin-1(2H)-yl)but-2-enyloxy)-2-phosphonoacetic acid], the IC50 was 325 ± 4 µM on Human DNA Pol α; more than 500 µM at Human DNA Pol β; 30 ± 16 µM in experiment [1] (IC50 HCMV DNA Pol); 27 ± 2 µM against VZV DNA polymerase; 24 ± 1 µM against HSV-1 DNA polymerase; more than 500 µM on HIV-1 RT (setting [2]).
